Measurements from patent US11970494B2, “6-heteroaryloxy benzimidazoles and azabenzimidazoles as JAK2 inhibitors” (Ajax Therapeutics, Inc., priority 2021, dated 2024).

System: not listed separately
Experiment: Caco2 Permeability Assay
Format: in vitro ADME
Settings: human, pH 7.4, Caco-2, 5 μM, read-out: Efflux Ratio (ER)
Experimental: Preparation of Caco-2 Cells: 50 μL and 25 mL of cell culture medium are added to each well of a Transwell® insert and reservoir, respectively. Then, the HTS Transwell® plates are incubated at 37° C., 5% CO2 for 1 hour before cell seeding. Caco-2 cell cells are diluted to 6.86×10^5 cells/mL with culture medium, and 50 μL of cell suspension are dispensed into the filter well of the 96-well HTS Transwell® plate. Cells are cultivated for 14-18 days in a cell culture incubator at 37° C., 5% CO2, 95% relative humidity. Cell culture medium is replaced every other day, beginning no later than 24 hours after initial plating.
Preparation of Stock Solutions: 10 mM stock solutions of test compounds are prepared in DMSO. The stock solutions of positive controls are prepared in DMSO at the concentration of 10 mM. Digoxin and propranolol are used as control compounds in this assay.
Assessment of Cell Monolayer Integrity: Medium is removed from the reservoir and each Transwell® insert and is replaced with prewarmed fresh culture medium. Transepithelial electrical resistance (TEER) across the monolayer is measured using Millicell Epithelial Volt-Ohm measuring system (Millipore, USA). The Plate is returned to the incubator once the measurement is done. The TEER value is calculated according to the following equation: TEER measurement (ohms)×Area of membrane (cm^2)=TEER value (ohm⋅cm^2). A TEER value greater than 230 ohm⋅cm^2 indicates a well-qualified Caco-2 monolayer.
Assay Procedure: The Caco-2 plate is removed from the incubator and washed twice with pre-warmed HBSS (10 mM HEPES, pH 7.4), and then incubated at 37° C. for 30 minutes. The stock solutions of control compounds are diluted in DMSO to get 1 mM solutions and then diluted with HBSS (10 mM HEPES, pH 7.4) to get 5 μM working solutions. The stock solutions of the test compounds are diluted in DMSO to get 1 mM solutions and then diluted with HBSS (10 mM HEPES and 4% BSA, pH 7.4) to get 5 μM working solutions. The final concentration of DMSO in the incubation system is 0.5%. To determine the rate of drug transport in the apical to basolateral direction. 75 μL of 5 μM working solutions of test compounds are added to the Transwell® insert (apical compartment) and the wells in the receiver plate (basolateral compartment) are filled with 235 μL of HBSS (10 mM HEPES and 4% BSA, pH 7.4). To determine the rate of drug transport in the basolateral to apical direction, 235 μL of 5 μM working solutions of test compounds are added to the receiver plate wells (basolateral compartment) and then the Transwell® inserts (apical compartment) are filled with 75 μL of HBSS (10 mM HEPES and 4% BSA, pH 7.4). Time 0 samples are prepared by transferring 50 μL of 5 μM working solution to wells of the 96-deepwell plate, followed by the addition of 200 μL cold methanol containing appropriate internal standards (IS). The plates are incubated at 37° C. for 2 hours. At the end of the incubation, 50 μL samples from donor sides (apical compartment for Ap→*Bl flux, and basolateral compartment for Bl→Ap) and receiver sides (basolateral compartment for Ap→Bl flux, and apical compartment for Bl→Ap) are transferred to wells of a new 96-well plate, followed by the addition of 4 volume of cold acetonitrile or methanol containing appropriate internal standards (IS). Samples are vortexed for 5 minutes and then centrifuged at 3,220 g for 40 minutes. An aliquot of 100 μL of the supernatant is mixed with an appropriate volume of ultra-pure water before LC-MS/MS analysis. To determine the Lucifer Yellow leakage after 2 hour transport period, stock solution of Lucifer yellow is prepared in ultra-pure water and diluted with HBSS (10 mM HEPES, pH 7.4) to reach the final concentration of 100 μM. 100 μL of the Lucifer yellow solution is added to each Transwell® insert (apical compartment), followed by filling the wells in the receiver plate (basolateral compartment) with 300 μL of HBSS (10 mM HEPES, pH 7.4). […]

Row | efflux ratio at 2 h, 5 μM | Compound
1 | 2 to 5 | Cn1c(Nc2cc3n(n2)CCCC3(F)F)nc2ncc(Oc3ccnc(NC(=O)N4CCC4)c3)c(C#N)c21 [Example I-30]

Same assay, conditions: human, pH 7.4, Caco-2, apical to basolateral, 5 μM

Row | Papp A→B at 2 h, 5 μM [×10⁻⁶ cm/s] | Compound
2 | 3 | Cn1c(Nc2cc3n(n2)CCCC3(F)F)nc2ncc(Oc3ccnc(NC(=O)N4CCC4)c3)c(C#N)c21 [Example I-30]

Biological target: T1, JAK2 (JH1 domain-catalytic, Y1007F,Y1008F) kinase (Homo sapiens, UniProt O60674, Y1007F/Y1008F)
T1 construct: made in house; host or cells: transiently transfected HEK293 cells
T1 sequence (O60674 849-1124 Y1007F/Y1008F limits assumed): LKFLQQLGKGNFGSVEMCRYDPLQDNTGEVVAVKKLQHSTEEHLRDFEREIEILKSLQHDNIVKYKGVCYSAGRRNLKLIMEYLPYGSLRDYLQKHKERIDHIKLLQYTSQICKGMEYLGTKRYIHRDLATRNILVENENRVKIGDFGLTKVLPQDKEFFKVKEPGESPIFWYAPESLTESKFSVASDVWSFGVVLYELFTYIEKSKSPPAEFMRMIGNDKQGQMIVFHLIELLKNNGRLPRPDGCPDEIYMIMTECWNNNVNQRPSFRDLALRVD
Experiment: JAK2 Binding Assay (JAK2 JH1 Domain Binding Assay)
Settings: JAK2 JH1 domain binding, qPCR detection; read-out: JAK2 Kd

Row | Compound | Kd [nM]
3 | Cn1c(Nc2cc3n(n2)CCC32CCC2)nc2ncc(Oc3ccnc(NC(=O)OC4COC4)c3)c(C#N)c21 [Example I-66, oxetan-3-yl (4-((7-cyano-2-((5′,6′-dihydrospiro[cyclobutane-1,4′-pyrrolo[1,2-b]pyrazol]-2′-yl)amino)-1-methyl-1H-imidazo[4,5-b]pyridin-6-yl)oxy)pyridin-2-yl)carbamate] | < 10
4 | CC(=O)Nc1cc(Oc2cnc3nc(Nc4cc(OC5CN(C)C5)cc(C(F)(F)F)c4)n(C)c3c2Cl)ccn1 [Example I-103, N-(4-((7-chloro-1-methyl-2-((3-((1-methylazetidin-3-yl)oxy)-5-(trifluoromethyl)phenyl)amino)-1H-imidazo[4,5-b]pyridin-6-yl)oxy)pyridin-2-yl)acetamide] | < 10
5 | CC(=O)Nc1cc(Oc2cnc3nc(Nc4cc([C@@H]5CCOC5)nc(C(F)(F)F)c4)n(C)c3c2C#N)ccn1 (single isomer, unassigned) [Example I-95-ii] | < 10
6 | Cn1c(Nc2cc3n(n2)CCOC3(C)C)nc2ncc(Oc3ccnc(NC(=O)N4CCC4)c3)c(C#N)c21 [Example I-47, N-(4-((7-cyano-2-((4,4-dimethyl-6,7-dihydro-4H-pyrazolo[5,1-c][1,4]oxazin-2-yl)amino)-1-methyl-1H-imidazo[4,5-b]pyridin-6-yl)oxy)pyridin-2-yl)azetidine-1-carboxamide] | < 10
7 | CN1CC(OC(=O)Nc2cc(Oc3cnc4nc(Nc5cc(C(F)(F)F)cn(C)c5=O)n(C)c4c3C#N)ccn2)C1 [Example I-39, 1-Methylazetidin-3-yl(4-((7-cyano-1-methyl-2-((1-methyl-2-oxo-5-(trifluoromethyl)-1,2-dihydropyridin-3-yl)amino)-1H-imidazo[4,5-b]pyridin-6-yl)oxy)pyridin-2-yl)carbamate] | 50 to 1000
8 | COC(=O)Nc1cc(Oc2cnc3nc(Nc4cc(C(F)(F)F)n(C5CC6(COC6)C5)n4)n(C)c3c2Cl)ccn1 [Example I-10, Methyl(4-((2-((1-(2-oxaspiro[3.3]heptan-6-yl)-5-(trifluoromethyl)-1H-pyrazol-3-yl)amino)-7-chloro-1-methyl-1H-imidazo[4,5-b]pyridin-6-yl)oxy)pyridin-2-yl)carbamate] | < 10

Further lines, results first:

Row | Kd [nM] | Compound
9 | 1000 to 5000 | CN1CCn2nc(Nc3nc4ncc(Oc5ccnc(NC(=O)O[C@H]6CCOC6)c5)c(Cl)c4n3C)cc2C1=O [Example I-55, (S)-tetrahydrofuran-3-yl(4-((7-chloro-1-methyl-2-((5-methyl-4-oxo-4,5,6,7-tetrahydropyrazolo[1,5-a]pyrazin-2-yl)amino)-1H-imidazo[4,5-b]pyridin-6-yl)oxy)pyridinyl)carbamate]
10 | < 10 | CC(=O)Nc1cc(Oc2cnc3nc(Nc4cc(OC[C@@H]5CCCN5C)cc(C(F)(F)F)c4)n(C)c3c2Cl)ccn1 [Example I-96, (S)-N-(4-((7-chloro-1-methyl-2-((3-((1-methylpyrrolidin-2-yl)methoxy)-5-(trifluoromethyl)phenyl)amino)-1H-imidazo[4,5-b]pyridin-6-yl)oxy)pyridin-2-yl)acetamide]
11 | < 10 | CC(=O)Nc1cc(Oc2cnc3nc(Nc4cc([C@H]5CCOC5)nc(C(F)(F)F)c4)n(C)c3c2C#N)ccn1 (single isomer, unassigned) [Example I-95-i]
